One experiment concerns C. albicans. As to the kind of experiment: Minimal inhibitory concentration (MIC) of powders against C. albicans. The format is cell-based, Candida albicans. As to the method:
(§1) The minimal inhibitory concentration (MIC) of ZIF-L powders synthesized from a solution with a 2-Me-Im:Zn ratio of 7:1 was tested against E. coli, S. aureus and C. albicans. The same test was conducted for ZIF-8 powders, 2-Me-Im alone and Zn(NO3)2.4H2O alone. The MIC values in mg/mL are tabulated below.

For another experiment, the system named is E. coli. As to the kind of experiment: Minimal inhibitory concentration (MIC) of powders against E. coli. The format is cell-based, Escherichia coli. Conditions: * = tested chemical formed precipitate in TSB medium. The method, then: as §1
For a further experiment, the system named is S. aureus. As to the kind of experiment: Minimal inhibitory concentration (MIC) of powders against S. aureus. The class given is cell-based, Staphylococcus aureus. Conditions: * = tested chemical formed precipitate in TSB medium. As to the method:
as §1

Converted amounts (≈) assume the structure as drawn.

With `Cc1ncc[nH]1` [2-Me-Im, 2-methylimidazole], the MIC (in general, the smallest concentration in the dilution series that meets the test's criterion for growth inhibition) stood at 6.2 mg/mL (≈ 75.5 mM) against C. albicans (Candida albicans), 12.5 mg/mL (≈ 152 mM) against E. coli (Escherichia coli) and 25 mg/mL (≈ 304 mM) against S. aureus (Staphylococcus aureus).
As to `O.O.O.O.O=[N+]([O-])[O-].O=[N+]([O-])[O-].[Zn+2]` [Zn(NO3)2•4H2O, Zn(NO3)2.4H2O], the “MIC, C. albicans” value against C. albicans was 0.8 mg/mL. The “MIC, E. coli” value in the experiment with E. coli was 3.1* mg/mL. Also, the “MIC, S. aureus” value with S. aureus is >50* mg/mL.

For the origin of these results see patent US10519323B2, “Antimicrobial coatings” (AGENCY FOR SCIENCE, TECHNOLOGY AND RESEARCH, priority 2015, dated 2019).
